This note sets out measurements from ChEMBL document CHEMBL5096180, “Pyrimidine-based EGFR TK inhibitors in targeted cancer therapy” (Eur J Med Chem, 2021).

For test [1], the target named is T1, Epidermal growth factor receptor (Homo sapiens, UniProt P00533). Nature of the test: Inhibition of EGFR (unknown origin) at 50 uM relative to control.
In the next test the test system is HepG2. Kind of test: Anticancer activity against human HepG2 cells. In kind it is functional, cell-based.
The subject of another test is HCT-116. Kind of test: Anticancer activity against human HCT-116 cells. In kind it is functional, cell-based.
Test [2] addresses T1, Epidermal growth factor receptor. Kind of test: Inhibition of EGFR (unknown origin) at 100 uM relative to control.
For a further test, the system named is PC-3. Nature of the test: Anticancer activity against human PC-3 cells. The format is functional, cell-based.
In test [3] the target is Receptor tyrosine-protein kinase erbB-2 (Homo sapiens, UniProt P04626). Kind of test: Inhibition of ErbB2 (unknown origin) pre-incubated for 5 mins followed by substrate addition and measured after 30 mins in presence of ATP by microtitre plate reader analysis.
A further test concerns NCI-H460. Nature of the test: Anticancer activity against human NCI-H460 cells assessed as cell viability incubated for 24 hrs by MTT assay. In kind it is functional, cell-based. For orientation: Tetrazolium dyes change colour on reduction, which living cells bring about.
For a further test, the system named is ACHN. Kind of test: Anticancer activity against human ACHN cells assessed as cell viability incubated for 24 hrs by MTT assay. The format is functional, cell-based.
For another test, the system named is OVCAR-4. Kind of test: Anticancer activity against human OVCAR-4 cells assessed as cell viability incubated for 24 hrs by MTT assay. The format is functional, cell-based. The settings on record: OVCAR-4, 24 h.
Test [4] relates to MCF7. Kind of test: Anticancer activity against human MCF7 cells incubated for 48 hrs by MTT assay. In kind it is functional, cell-based. The settings on record: MCF7, 48 h.
Test [5] relates to MCF7. Kind of test: Potency index,ratio of test compound IC50 to Erlotinib IC50 for antiproliferative activity against human MCF7 cells incubated for 48 hrs by MTT assay. In kind it is functional.
For test [6], the target named is T1, Epidermal growth factor receptor. Nature of the test: Inhibition of recombinant EGFR (unknown origin) using TMB as substrate incubated for 3 hrs in presence of ATP by ELISA. Background: An ELISA detects its analyte on a solid surface through an enzyme-linked reagent.
Test [7] has as its system MCF7. Kind of test: Potency index,ratio of test compound IC50 to Doxorubicin IC50 for antiproliferative activity against human MCF7 cells incubated for 48 hrs by MTT assay. In kind it is functional.
Test [8] deals with BaF3. Kind of test: Antiproliferative activity against mouse BAF3 cells harboring EGFR 19D/T790M/C797S triple mutant. In kind it is functional, cell-based.
The subject of test [9] is BaF3. Kind of test: Antiproliferative activity against mouse BAF3 cells harboring EGFR L858R/T790M/C797S triple mutant. In kind it is functional, cell-based.
Test [10] addresses Epidermal growth factor receptor (Homo sapiens, UniProt P00533, L858R/T790M). Nature of the test: Inhibition of EGFR L858R/T790M double mutant (unknown origin) in presence of ATP by ADP-Glo assay. Background: ADP-Glo first removes unused ATP, then detects ADP through luciferase.
Test [11] has as its target Epidermal growth factor receptor (Homo sapiens, UniProt P00533, C797S/L858R/T790M). Kind of test: Inhibition of EGFR L858R/T790M/C797S triple mutant (unknown origin).
For test [12], the system named is NCI-H1975. Nature of the test: Growth inhibition of human NCI-H1975 cells harbouring EGFR L858R/T790M double mutant. In kind it is functional.
In test [13] the test system is NCI-H1975. Nature of the test: Antiproliferative activity against human NCI-H1975 cells assessed as cell growth inhibition incubated for 72 hrs by MTT assay. In kind it is functional, cell-based. As to conditions: NCI-H1975, 72 h.
For test [14], the target named is Epidermal growth factor receptor (Homo sapiens, UniProt P00533, T790M). Nature of the test: Inhibition of EGFR T790M mutant (unknown origin).
In the next test the test system is HCC827. Nature of the test: Antiproliferative activity against human HCC827 assessed as cell growth inhibition. In kind it is functional, cell-based.
The subject of test [15] is NCI-H1975. Kind of test: Antiproliferative activity against human NCI-H1975 assessed as cell growth inhibition. In kind it is functional, cell-based.
Test [16] deals with T1, Epidermal growth factor receptor. Kind of test: Inhibition of recombinant C-terminal His-tagged/N-terminal GST-tagged human EGFR expressed in sf9 insect cells using poly(Glu, Tyr) sodium salt (4:1, Glu:Tyr) as a substrate measured after 40 mins by Kinase-Glo reagent based luminescence analysis.
Test [17] in a line: Inhibition of recombinant N-terminal GST-tagged human HER2 expressed in sf9 insect cells using poly(Glu, Tyr) sodium salt (4:1, Glu:Tyr) as a substrate measured after 40 mins by Kinase-Glo reagent based luminescence analysis.
The test system of the next test is EKVX. Kind of test: Anticancer activity against human EKVX assessed as cell growth inhibition at 10 uM incubated for 48 hrs relative to control. In kind it is functional. As to conditions: pooled result: one value given for 8 cell lines, strains, targets or settings.
In test [18] the test system is Epidermal growth factor receptor (Homo sapiens), P00533 [L858R,T790M]. Nature of the test: Inhibition of EGFR T790M/L858R double mutant (unknown origin) relative to control.
Test [19] concerns Epidermal growth factor receptor (Homo sapiens), P00533 [L858R]. Nature of the test: Inhibition of EGFR L858R mutant (unknown origin) relative to control. The settings on record: concentration not given here.
The target of test [20] is T2, Tyrosine-protein kinase JAK3 (Homo sapiens) (UniProt P52333).
T2 sequence (whole entry): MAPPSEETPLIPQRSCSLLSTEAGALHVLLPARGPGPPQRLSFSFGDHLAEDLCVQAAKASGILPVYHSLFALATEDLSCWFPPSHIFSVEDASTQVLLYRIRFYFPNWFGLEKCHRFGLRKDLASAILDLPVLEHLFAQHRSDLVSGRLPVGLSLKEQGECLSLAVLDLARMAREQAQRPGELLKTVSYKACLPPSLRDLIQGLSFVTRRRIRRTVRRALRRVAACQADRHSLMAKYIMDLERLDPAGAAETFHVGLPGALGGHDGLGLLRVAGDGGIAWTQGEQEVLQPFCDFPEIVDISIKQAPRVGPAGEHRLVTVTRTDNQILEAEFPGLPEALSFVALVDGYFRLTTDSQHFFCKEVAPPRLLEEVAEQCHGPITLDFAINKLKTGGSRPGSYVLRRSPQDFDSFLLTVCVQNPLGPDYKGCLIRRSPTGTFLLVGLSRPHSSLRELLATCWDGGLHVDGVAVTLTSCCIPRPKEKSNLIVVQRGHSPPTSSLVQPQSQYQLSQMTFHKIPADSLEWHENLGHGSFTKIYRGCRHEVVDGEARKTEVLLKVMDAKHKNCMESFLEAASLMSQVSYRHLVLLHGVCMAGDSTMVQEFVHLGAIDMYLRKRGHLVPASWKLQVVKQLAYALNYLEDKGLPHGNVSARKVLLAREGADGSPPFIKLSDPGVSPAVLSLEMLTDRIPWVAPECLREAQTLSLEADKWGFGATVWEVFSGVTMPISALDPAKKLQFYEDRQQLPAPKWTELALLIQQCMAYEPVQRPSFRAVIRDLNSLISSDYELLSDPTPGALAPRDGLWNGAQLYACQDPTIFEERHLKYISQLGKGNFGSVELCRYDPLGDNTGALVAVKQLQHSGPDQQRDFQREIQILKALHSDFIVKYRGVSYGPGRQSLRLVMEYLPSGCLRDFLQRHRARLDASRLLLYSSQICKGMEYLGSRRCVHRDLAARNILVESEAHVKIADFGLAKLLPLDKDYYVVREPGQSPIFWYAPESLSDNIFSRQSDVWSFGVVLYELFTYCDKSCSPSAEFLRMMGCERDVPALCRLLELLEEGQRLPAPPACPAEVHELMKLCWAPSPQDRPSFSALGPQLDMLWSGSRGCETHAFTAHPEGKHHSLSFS
Kind of test: Inhibition of JAK3 (unknown origin).

Several values for one entry are separate records, joined by “and”; a condition that tells them apart may be missing. Identical values can stand only once.

T1 sequence (P00533 whole entry): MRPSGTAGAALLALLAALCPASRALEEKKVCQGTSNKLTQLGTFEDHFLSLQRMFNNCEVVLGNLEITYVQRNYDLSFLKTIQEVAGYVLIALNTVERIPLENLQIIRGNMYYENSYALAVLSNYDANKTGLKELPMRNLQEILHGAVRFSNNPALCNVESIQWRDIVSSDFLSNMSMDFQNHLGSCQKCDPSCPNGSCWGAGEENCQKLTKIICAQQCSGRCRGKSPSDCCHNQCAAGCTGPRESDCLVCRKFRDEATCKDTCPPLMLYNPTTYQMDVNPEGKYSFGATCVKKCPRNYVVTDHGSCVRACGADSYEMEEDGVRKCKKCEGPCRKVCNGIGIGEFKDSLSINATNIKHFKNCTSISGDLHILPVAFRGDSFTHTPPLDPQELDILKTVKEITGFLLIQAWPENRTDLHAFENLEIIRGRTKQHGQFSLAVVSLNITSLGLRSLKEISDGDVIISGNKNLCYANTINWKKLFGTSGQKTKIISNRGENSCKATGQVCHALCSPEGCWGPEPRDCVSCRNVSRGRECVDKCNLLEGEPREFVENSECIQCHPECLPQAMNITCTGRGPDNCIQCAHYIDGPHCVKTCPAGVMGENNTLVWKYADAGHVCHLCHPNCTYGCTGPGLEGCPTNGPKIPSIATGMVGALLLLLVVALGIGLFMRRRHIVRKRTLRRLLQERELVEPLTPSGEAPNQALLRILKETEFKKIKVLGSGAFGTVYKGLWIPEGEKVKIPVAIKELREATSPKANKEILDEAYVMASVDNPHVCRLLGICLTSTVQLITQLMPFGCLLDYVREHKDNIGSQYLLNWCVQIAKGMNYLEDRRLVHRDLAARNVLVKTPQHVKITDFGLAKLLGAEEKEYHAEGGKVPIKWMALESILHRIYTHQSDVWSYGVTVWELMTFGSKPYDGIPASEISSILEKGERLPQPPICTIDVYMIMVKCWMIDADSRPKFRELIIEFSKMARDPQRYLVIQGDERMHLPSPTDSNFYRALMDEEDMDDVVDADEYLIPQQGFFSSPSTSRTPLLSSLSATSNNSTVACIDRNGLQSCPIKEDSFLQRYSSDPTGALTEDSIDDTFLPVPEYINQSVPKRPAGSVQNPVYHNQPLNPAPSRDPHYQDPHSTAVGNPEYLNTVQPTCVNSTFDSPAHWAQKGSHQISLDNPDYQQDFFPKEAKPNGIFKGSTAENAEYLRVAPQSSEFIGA
Epidermal growth factor receptor (Homo sapiens), P00533 [L858R,T790M], sequence (P00533 whole entry T790M/L858R, looked up): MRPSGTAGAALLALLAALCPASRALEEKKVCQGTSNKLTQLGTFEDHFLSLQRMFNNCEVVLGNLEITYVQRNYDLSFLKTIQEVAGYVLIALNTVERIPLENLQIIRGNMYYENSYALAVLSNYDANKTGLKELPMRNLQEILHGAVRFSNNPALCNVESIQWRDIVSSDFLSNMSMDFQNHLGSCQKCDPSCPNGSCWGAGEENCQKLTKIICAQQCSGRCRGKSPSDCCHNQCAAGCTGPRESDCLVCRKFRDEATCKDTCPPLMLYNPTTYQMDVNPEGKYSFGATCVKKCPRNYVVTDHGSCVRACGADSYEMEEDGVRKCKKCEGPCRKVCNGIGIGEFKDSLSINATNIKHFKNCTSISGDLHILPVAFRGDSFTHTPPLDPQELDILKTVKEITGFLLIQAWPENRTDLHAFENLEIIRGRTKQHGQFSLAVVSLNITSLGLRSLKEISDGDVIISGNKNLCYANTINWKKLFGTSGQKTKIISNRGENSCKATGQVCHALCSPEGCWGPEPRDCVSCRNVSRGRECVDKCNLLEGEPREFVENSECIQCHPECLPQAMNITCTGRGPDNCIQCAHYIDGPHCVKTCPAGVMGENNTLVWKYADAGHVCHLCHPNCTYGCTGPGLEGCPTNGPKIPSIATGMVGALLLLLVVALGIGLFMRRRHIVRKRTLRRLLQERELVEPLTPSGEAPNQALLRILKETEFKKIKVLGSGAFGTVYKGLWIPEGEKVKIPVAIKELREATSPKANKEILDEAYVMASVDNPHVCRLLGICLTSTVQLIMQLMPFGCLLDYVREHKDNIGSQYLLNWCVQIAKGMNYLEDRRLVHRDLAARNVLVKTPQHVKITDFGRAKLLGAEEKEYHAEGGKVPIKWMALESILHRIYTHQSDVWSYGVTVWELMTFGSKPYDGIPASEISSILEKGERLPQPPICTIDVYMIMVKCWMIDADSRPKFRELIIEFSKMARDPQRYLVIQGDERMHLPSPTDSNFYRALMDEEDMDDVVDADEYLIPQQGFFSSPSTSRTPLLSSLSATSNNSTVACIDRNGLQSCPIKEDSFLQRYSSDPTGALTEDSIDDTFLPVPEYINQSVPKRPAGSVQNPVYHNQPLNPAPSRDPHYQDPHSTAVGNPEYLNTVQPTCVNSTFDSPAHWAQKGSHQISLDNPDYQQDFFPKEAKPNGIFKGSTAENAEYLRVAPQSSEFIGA
Epidermal growth factor receptor (Homo sapiens, UniProt P00533, L858R/T790M), sequence (P00533 25-1210 T790M/L858R limits assumed): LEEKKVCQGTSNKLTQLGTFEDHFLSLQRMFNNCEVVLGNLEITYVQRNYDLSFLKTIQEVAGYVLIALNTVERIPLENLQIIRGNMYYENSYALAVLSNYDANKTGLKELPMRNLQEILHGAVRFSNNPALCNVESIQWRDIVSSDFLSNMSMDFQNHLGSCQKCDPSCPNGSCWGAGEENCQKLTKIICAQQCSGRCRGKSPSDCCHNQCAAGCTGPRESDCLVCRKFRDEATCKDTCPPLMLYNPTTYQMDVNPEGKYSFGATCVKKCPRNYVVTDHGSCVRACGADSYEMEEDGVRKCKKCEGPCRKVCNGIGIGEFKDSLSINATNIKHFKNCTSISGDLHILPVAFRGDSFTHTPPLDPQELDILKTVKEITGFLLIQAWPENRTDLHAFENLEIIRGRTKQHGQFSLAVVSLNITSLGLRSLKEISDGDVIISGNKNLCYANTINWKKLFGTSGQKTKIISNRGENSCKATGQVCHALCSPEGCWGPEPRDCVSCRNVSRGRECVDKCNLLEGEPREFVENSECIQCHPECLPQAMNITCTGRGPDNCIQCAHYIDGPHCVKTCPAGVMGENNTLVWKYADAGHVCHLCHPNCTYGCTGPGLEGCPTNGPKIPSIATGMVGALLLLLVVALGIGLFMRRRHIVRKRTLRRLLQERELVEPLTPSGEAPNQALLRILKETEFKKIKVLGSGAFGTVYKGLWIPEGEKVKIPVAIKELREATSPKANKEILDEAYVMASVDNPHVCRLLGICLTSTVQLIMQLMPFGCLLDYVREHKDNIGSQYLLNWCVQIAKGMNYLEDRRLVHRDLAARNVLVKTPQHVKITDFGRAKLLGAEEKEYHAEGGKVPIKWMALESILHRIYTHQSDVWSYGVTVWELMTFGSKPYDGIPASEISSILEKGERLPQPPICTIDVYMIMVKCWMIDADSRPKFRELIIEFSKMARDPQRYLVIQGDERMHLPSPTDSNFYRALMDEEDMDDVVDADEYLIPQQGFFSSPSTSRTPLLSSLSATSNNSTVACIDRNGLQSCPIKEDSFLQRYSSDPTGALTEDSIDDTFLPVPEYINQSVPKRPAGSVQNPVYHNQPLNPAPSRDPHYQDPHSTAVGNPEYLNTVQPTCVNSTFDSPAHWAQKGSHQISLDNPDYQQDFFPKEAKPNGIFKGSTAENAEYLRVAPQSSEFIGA
Epidermal growth factor receptor (Homo sapiens, UniProt P00533, T790M), sequence (P00533 25-1210 T790M limits assumed): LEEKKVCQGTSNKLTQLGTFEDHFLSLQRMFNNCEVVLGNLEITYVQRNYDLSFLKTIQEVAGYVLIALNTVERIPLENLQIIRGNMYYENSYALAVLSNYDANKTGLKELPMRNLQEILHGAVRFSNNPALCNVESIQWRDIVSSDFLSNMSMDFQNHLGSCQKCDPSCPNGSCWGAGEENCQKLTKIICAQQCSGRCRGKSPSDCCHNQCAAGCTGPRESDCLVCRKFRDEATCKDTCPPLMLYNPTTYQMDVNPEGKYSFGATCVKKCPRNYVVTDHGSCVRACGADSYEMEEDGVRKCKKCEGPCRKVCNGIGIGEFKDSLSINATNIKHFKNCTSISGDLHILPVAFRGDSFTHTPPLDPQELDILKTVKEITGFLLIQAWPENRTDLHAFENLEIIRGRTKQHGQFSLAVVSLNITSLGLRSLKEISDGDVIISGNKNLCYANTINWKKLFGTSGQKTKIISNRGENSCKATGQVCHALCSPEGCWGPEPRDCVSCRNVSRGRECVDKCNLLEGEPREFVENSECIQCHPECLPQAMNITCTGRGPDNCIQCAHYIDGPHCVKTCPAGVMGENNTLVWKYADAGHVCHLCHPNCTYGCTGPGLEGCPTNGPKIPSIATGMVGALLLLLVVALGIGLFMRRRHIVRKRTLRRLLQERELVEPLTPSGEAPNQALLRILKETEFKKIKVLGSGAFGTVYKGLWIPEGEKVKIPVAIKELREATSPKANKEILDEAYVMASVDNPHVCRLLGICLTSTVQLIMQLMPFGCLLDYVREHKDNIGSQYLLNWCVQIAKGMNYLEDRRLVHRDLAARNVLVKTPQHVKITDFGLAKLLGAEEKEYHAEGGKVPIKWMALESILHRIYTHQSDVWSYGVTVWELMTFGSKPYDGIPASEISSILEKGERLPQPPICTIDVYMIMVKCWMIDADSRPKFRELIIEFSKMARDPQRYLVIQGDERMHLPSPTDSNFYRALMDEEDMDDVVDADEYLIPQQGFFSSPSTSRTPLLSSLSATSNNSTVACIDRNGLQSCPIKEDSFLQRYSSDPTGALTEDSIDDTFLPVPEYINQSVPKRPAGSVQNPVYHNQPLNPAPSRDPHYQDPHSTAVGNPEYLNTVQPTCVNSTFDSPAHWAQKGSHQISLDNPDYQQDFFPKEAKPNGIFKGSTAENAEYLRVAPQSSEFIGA

As a reminder, the inhibition is the relative decrease from the control value, in per cent. For orientation: IC50 means the concentration that inhibits the measured activity by half. Consider `Cc1ccc(-c2cc(-c3ccc(Cl)cc3)nc3nc(-n4[nH]c(C)cc4=O)[nH]c(=O)c23)cc1`, for which the inhibition was determined as 81% in [1] and 86% in [2]. The IC50 turned out to be 300 nM in the test with HepG2, 7000 nM in the test on HCT-116 and 6600 nM with PC-3.

`Cc1nn(-c2ccc(F)cc2)c2c(Nc3ccc(F)c(Cl)c3)ncnc12`: the IC50 in [3] was 250 nM; in the test with NCI-H460 it was 1740 nM and 4440 nM; in the test on ACHN, 5530 nM; in the test with OVCAR-4 it was 1740 nM.

Take `C=CC(=O)Nc1cccc(Oc2nc(Nc3ccc(OC)cc3)nc3c2CSCC3)c1`: the half-inhibitory concentration (IC50) was found to be 660 nM in the test on MCF7 [4] and 28 nM in test [6]. Further, the “Ratio IC50” value came to 1.73 with MCF7 [5] and 4.64 with MCF7 [7].

In the case of `CCC(=O)NC1CCC(N2C(=O)N(c3ccccc3Cl)Cc3cnc(Nc4ccc(N5CCN(C)CC5)c(C)c4)nc32)CC1` (centres undefined), the half-inhibitory concentration (IC50) is 310 nM in the test with BaF3 [8] and 290 nM in the test on BaF3 [9].

Consider `C=CC(=O)Nc1cccc(Nc2nc(Nc3ccc(SCC(=O)N4CCOCC4)cc3)ncc2Cl)c1`, for which the IC50 in [10] stood at 9.1 nM.

By GI50 is commonly meant the concentration that inhibits growth by half. High values mean less potent growth inhibition, low ones more potent growth inhibition. With `C=CC(=O)N1CCCC(n2nc(-c3ccc4ccccc4c3)c3c(N)ncnc32)C1` (centres undefined), in [11], the IC50 is 88 nM. The molecule further came in with a 50% growth inhibitory concentration (GI50) with NCI-H1975 [12] of 140 nM.

Turning to `C=CC(=O)Nc1cccc(Nc2nc(Nc3ccc(SCCCN4CCOCC4)cc3)ncc2Cl)c1`, the IC50 in the test on NCI-H1975 [13] came out at 74 nM; in test [10] it was 27.5 nM.

For the molecule `C=CC(=O)N1CCCC(n2nc(-c3cccc4ccccc34)c3c(N)ncnc32)C1` (centres undefined), the GI50 with NCI-H1975 [12] came out at 490 nM. That is a sub-micromolar value.

In the test with NCI-H1975 [12], `C=CC(=O)N1CCCC(n2nc(-c3cn(C)c4ccccc34)c3c(N)ncnc32)C1` (centres undefined) had a GI50 of 210 nM.

As for `CC#CC(=O)Nc1ccc(Nc2nccc(-c3cn(C)c4ccccc34)n2)cc1`, half-maximal inhibition in [14] (IC50) required 220 nM.

Consider `CN(C)C1CCN(c2ccc(Nc3cc4c(N5CCC(CO)CC5)nc(Nc5ccc(F)cc5)nc4cn3)nc2)CC1`, for which the half-maximal inhibitory concentration (IC50) in the test on HCC827 and in the test with NCI-H1975 [15] was 40 nM each time.

On to `Fc1cccc(COc2ccc(Nc3ncnc4sc5c(c34)CCCC5)cc2Cl)c1`, for which the values for the half-inhibitory concentration (IC50) in test [16] and in [17] were 200 nM and 500 nM, respectively. The inhibition at 10 µM in the test on EKVX stood at 42%.

As for `CCOC(=O)c1cnc(NC(N)=S)[nH]c1=O`, the inhibition in [18] and in test [19] was 62% each time.

The molecule `C=CC(=O)Nc1ccc(Nc2nccc(-c3cn(C)c4ccccc34)n2)cc1` came in with an IC50 in test [14] of 180 nM.

For the molecule `CCOC(=O)c1cnc(NC(N)=S)nc1C`, the inhibition in test [18] and in [19] was 62% throughout.

Regarding `CC#CC1=Nc2cc(Nc3nccc(-c4cn(C)c5ccccc45)n3)ccc2C(C)(C)O1`, the IC50 in test [20] amounted to 60 nM.
